From patent US10800807B2, “TGR5 modulators and methods of use thereof” (Intercept Pharmaceuticals, Inc., priority 2015, dated 2020)
Residue numbers refer to the chain shown, from its start. Values after ≈ are worked out from the molar mass of the structure shown. Where two headings read alike, the source gives them in different places.

Tests used:
bovine serum albumin = bovine serum albumin (Bos taurus, UniProt P02769); experiment: Albumin binding by equilibrium dialysis; format: in vitro ADME; conditions: 5% bovine serum albumin saline solution, 25° C.
Sequence of bovine serum albumin (P02769 25-607): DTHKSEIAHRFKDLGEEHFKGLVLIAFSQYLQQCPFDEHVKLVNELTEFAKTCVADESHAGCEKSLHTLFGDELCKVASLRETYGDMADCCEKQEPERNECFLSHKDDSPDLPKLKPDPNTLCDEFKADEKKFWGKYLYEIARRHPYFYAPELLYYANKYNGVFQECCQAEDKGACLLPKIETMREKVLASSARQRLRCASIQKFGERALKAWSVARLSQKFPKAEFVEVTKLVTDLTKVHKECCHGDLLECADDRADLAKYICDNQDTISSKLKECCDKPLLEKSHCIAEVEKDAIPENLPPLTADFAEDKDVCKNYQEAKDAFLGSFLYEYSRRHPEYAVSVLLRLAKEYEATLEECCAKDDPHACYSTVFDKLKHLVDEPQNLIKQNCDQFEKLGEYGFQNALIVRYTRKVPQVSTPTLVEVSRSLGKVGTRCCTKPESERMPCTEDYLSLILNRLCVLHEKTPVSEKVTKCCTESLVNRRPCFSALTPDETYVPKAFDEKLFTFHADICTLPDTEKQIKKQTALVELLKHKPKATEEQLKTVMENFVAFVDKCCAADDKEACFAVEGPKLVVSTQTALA
Method: BA was dissolved at a concentration of […] in 5% bovine serum albumin saline solution and left to stand for 24 hours at 25° C. Two milliliters of this solution was dialyzed in cellulose sacs with a molecular weight cut-off of 12-14 kDa (Spectra/Por; Spectrum Medical Industries Inc., Rancho Dominguez, Calif.) against 25 ml of saline solution. The system was equilibrated by mechanical shaking for 72 hours at 25° C. BA concentrations in the starting solution and in the dialyzed solution were determined by HPLC-ES-MS/MS as reported below.

[1] = Lipophilicity, 1-octanol/water partition coefficient (shake-flask); format: physicochemical; conditions: pH 8.00, ionized BA
Method: The experiments were carried out on 1 mM initial bile salt solution buffered at pH 8.00 with 0.1 M potassium phosphate buffer to ensure complete ionization of the BA. BA concentration in the water phase before and after partition in 1-octanol was measured by HPLC-ESMS/MS as reported below.

[2] = Critical micellar concentration (surface tension / dye solubilization); format: physicochemical; conditions: for CMC: BA sodium salts in 0.1 M NaCl, 25° C.; for STCMC: surface tension at CMC
Method: In the first method, the surface tension was performed by maximum bubble-pressure method using a Sensadyne 6000 tensiometer (Chem-Dyne Research Corp., Milwaukee, Wis.). The surface tension of aqueous solutions at various concentrations (range 0.1-100 mM) of the BA sodium salts in 0.1 M NaCl was measured at 25° C. The surface tension values were plotted against the logarithm of the bile salt concentration; the regression lines corresponding to the two parts of the curve (monomeric and micellar phases) were calculated using the method of least squares. The critical micellar concentration (CMC) value (mM) was obtained by the intersection of the two lines.
The second method is based on the fact that some dyes, specifically Orange OT ([…]), are almost insoluble in water but dissolve in solutions with micellar aggregates that incorporate them; thus, the intensity of color of the solution increases with bile salt concentration (after CMC achievement). The amount of dye solubilized in relation to bile salt concentration was determined spectrophotometrically.
For each bile acid, various solution at different concentrations, between 50 mM and 0.1 mM with appropriate dilutions, were incubated under stirring at room temperature for 3 days with an excess of Orange OT. Then all the solutions were centrifuged and filtered through a 0.22 μm Millipore fiiter (Millipore Corp., Bedford, Mass.).

[3] = as above; format: physicochemical
Water solubility = format: physicochemical; conditions: 0.1 M HCl, pH 1.00, 25° C.; for solubility thermodynamic at 1 week: read-out: Ws; for Ws: 1 week
Method: BA were suspended in 100 ml of 0.1 M HCl, pH 1.00, and the saturated solutions were transferred to a thermostat-equipped water bath maintained at 25° C. After incubation for 1 week, the solutions were filtered on a Millipore filter ([…]), and the concentration of BA was measured by HPLC-ESMS/MS as reported below.

TGR5 [4] = molecular target: T1, TGR5 (Homo sapiens, UniProt Q8TDU6); experiment: TGR5 activity: intracellular cAMP levels, NCI-H716 cells (HTR-FRET); format: cell-based; set-up: endogenous in cells; host or cells: NCI-H716; conditions: NCI-H716 cells; for Emax: 1 h, Ref. LCA 100% at 10 μM, read-out: TGR5 (NCI-H716) Efficacy; for EC50: cAMP
T1 sequence (Q8TDU6 1-330): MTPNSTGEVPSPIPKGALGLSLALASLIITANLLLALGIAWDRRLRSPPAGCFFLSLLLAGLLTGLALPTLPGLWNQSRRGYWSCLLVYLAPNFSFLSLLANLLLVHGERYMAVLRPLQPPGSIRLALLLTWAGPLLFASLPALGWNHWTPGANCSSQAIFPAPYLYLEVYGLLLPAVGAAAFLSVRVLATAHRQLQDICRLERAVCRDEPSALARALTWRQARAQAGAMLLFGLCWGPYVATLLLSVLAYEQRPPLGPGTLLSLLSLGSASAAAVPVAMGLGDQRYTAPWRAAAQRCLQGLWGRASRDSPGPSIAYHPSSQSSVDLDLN
Method: Activation of TGR5 was assessed by measuring the level of cAMP using an HTR-FRET assay. Thus, NCI-H716 cells were cultured on 96-well plates coated with Matrigel (Corning, USA) (0.75 mg/ml) in DMEM supplemented with 10% FCS, 100 units/ml penicillin, and 100 μg/ml streptomycin sulphate. […] The level of intracellular cAMP was determined with Lance kit. Z′ factor was used to validate assays.

[5] = molecular target: T2, mouse glutathione transferase-tagged FXR-LBD (Mus musculus, UniProt Q60641); experiment: FXR AlphaScreen coactivator recruitment assay (mouse); format: biochemical; conditions: mouse FXR-LBD, value in parentheses; for EC50: read-out: (mFXR) EC50; for Emax: read-out: (mFXR) Efficacy
T2 construct: mouse glutathione transferase-tagged FXR-LBD (generated in-house); made in house
T2 sequence (Q60641 264-488 limits assumed): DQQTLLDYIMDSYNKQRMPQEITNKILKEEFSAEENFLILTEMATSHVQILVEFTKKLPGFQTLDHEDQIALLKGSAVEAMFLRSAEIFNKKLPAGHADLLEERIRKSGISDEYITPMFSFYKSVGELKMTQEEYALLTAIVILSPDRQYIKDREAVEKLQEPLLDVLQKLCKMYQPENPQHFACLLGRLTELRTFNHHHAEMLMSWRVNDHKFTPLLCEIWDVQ
Method: (§1) Activation of the FXR receptor was determined using a recruitment coactivator assay, namely AlphaScreen technology. The assays were performed using human glutathione transferase-tagged FXR-LBD (Life Technologies, USA) and mouse glutathione transferase-tagged FXR-LBD (generated in-house). Briefly, assays were conducted in white, low-volume, 384-well OptiPlate using a final volume of 25 μL containing 10 nM glutathione transferase-tagged FXR-LBD protein and 30 nM biotinylated Src-1 peptide. The stimulation was carried out with different BA concentrations for 30 minutes at 25° C. […] Dose-response curves were performed in triplicate and Z′ factor was used to validate the robustness of the assay.

[6] = molecular target: T3, human glutathione transferase-tagged FXR-LBD (Homo sapiens, UniProt Q96RI1); experiment: FXR AlphaScreen coactivator recruitment assay (human); format: biochemical; set-up: Emax: dose or concentration left out as unconfirmed; conditions: for EC50: human FXR-LBD, AlphaScreen, read-out: hFXR EC50; for Emax: read-out: hFXR Efficacy;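 for hFXR Efficacy: CDCA at 50 µM taken as 100%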
T3 construct: human glutathione transferase-tagged FXR-LBD (Life Technologies, USA); purchased Life Technologies, USA
T3 sequence (Q96RI1 262-486 limits assumed): T2 sequence (Q60641 264-488 limits assumed) with D7H, Y8F, S46N, I50V, A95S, A98S, K107N, V125I, M174I, Y175H
Method: as §1

TGR5 [7] = molecular target: T1, TGR5; experiment: TGR5 activity: cAMP in hTGR5 CHO-k1 cells; format: cell-based; set-up: expressed in transfected cells; host or cells: CHO-k1; conditions: hTGR5 CHO cells; for Emax: 0.5 h, Ref. LCA 100% at 10 μM, read-out: hTGR5 CHO Efficacy; for EC50: cAMP
mTGR5 = molecular target: T4, mTGR5 (Mus musculus, UniProt Q80SS6); experiment: TGR5 activity: cAMP in mTGR5 CHO-Pi10 clone 4 cells; format: cell-based; conditions: mTGR5 CHO cells, value in parentheses; for Emax: 0.5 h, read-out: (mTGR5 CHO) Efficacy
T4 construct: expressed in transfected cells; host or cells: CHO-Pi10 clone 4
T4 sequence (Q80SS6 1-329): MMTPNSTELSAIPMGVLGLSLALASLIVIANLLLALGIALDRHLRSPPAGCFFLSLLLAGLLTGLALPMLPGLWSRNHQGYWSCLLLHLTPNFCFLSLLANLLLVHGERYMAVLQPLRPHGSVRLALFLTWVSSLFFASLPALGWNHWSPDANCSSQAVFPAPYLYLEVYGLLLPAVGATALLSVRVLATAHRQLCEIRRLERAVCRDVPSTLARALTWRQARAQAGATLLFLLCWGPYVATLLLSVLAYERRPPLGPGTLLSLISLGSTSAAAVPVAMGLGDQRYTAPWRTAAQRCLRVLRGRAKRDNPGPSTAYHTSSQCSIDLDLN

[8] = simulated gastric fluid, thermodynamic from solid

| Structure (SMILES) | pKa (pKa) | Albumin binding (%) (bovine serum albumin) | LogPA− [1] | CMC [2] | STCMC [2] | CMpH [3] | solubility thermodynamic at 1 week (Water solubility; [8]) | Emax (TGR5 [4]) | EC50 (TGR5 [4]) | EC50 [5] | Emax [5] | EC50 [6] | Emax [6] | Emax (TGR5 [7]) | EC50 (TGR5 [7]) | Emax (mTGR5) | EC50 (mTGR5) | solubility thermodynamic at 1 week (Water solubility) | Ws (Water solubility) |
| --- | --- | --- | --- | --- | --- | --- | --- | --- | --- | --- | --- | --- | --- | --- | --- | --- | --- | --- | --- |
| C[C@H](CCC(=O)O)[C@H]1CC[C@H]2[C@@H]3[C@H](O)C[C@@H]4C[C@H](O)CC[C@]4(C)[C@H]3CC[C@]12C [CDCA, chenodeoxycholic acid, reference compound] | 5 | 96% | 2.2 | 3.2 mM | 45.5 Dyne/cm | 7 | – | – | – | – | – | – | – | – | – | – | – | – | – |
| CC[C@H]1[C@@H](O)C2C3CC[C@H]([C@H](C)CC(F)(F)C(=O)O)[C@@]3(C)[C@@H](O)CC2[C@@]2(C)CC[C@@H](O)C[C@@H]12 (stereo partly drawn) [Compound 3, 3α,7α,12α-Trihydroxy-6α-ethyl-23,23-gemdifluoro-5β-cholan-24-oic acid] | 1.1 | – | 1.0 | 10 mM | – | 2.7 | 225 µM (≈ 106 µg/mL) | – | – | – | – | – | – | – | – | – | – | – | – |
| CC[C@H]1[C@@H](O)C2C3CC[C@H]([C@H](C)CCc4nn[nH]n4)[C@@]3(C)CCC2[C@@]2(C)CC[C@@H](O)C[C@@H]12 (stereo partly drawn) [Compound 15, 3α,7α-Dihydroxy-6α-ethyl-23-(tetrazol-5-yl)-6α-ethyl-24-nor-5β-cholane] | 5.59 | 76% | 1.2 | – | – | – | 132 µM (≈ 58.7 µg/mL) | 97 ± 7.6% | 5000 ± 1000 nM | 6000 nM | 222% | 150 ± 50 nM | 173 ± 22% | 99 ± 3% | 720 ± 50 nM | 102% | 440 nM | – | – |
| CC[C@H]1[C@@H](O)C2C3CC[C@H]([C@H](C)CC(=O)NCCOS(=O)(=O)[O-])[C@@]3(C)CCC2[C@@]2(C)CC[C@@H](O)C[C@@H]12.[Na+] (stereo partly drawn) [Compound 21, Sodium 2-(3α,7α-dihydroxy-6α-ethyl-24-nor 5β-cholan-23-amido)-ethyl sulfate] | < 1 | 86% | 0.9 | 4 mM | – | – | 1810 µM | 127 ± 1% | 190 ± 50 nM | 5400 nM | 136% | 1500 ± 500 nM | 136 ± 7% | 105 ± 2% | 20 ± 10 nM | 107% | 70 nM | – | – |
| C[C@H](CCC(=O)NCC(=O)O)[C@H]1CC[C@H]2[C@@H]3[C@H](O)C[C@@H]4C[C@H](O)CC[C@]4(C)[C@H]3C[C@H](O)[C@]12C [GCA, reference compound] | 3.9 | 65% | −0.4 | 8 mM | 48.8 Dyne/cm | 6.3 | – | – | – | – | – | – | – | – | – | – | – | 32 µM (≈ 14.9 µg/mL) | – |
| CC[C@H]1[C@@H](O)C2C3CC[C@H]([C@H](C)C[C@H](C)C(=O)O)[C@@]3(C)[C@@H](O)CC2[C@@]2(C)CC[C@@H](O)C[C@@H]12 (some centres unmarked) [Ref. Cmpd. A, reference compound] | 5 | 62% | 1.4 | 2 mM | 50.1 Dyne/cm | 6.1 | – | – | – | – | – | – | – | – | – | – | – | – | – |
| C[C@H](CCC(=O)NCCS(=O)(=O)O)[C@H]1CC[C@H]2[C@@H]3[C@H](O)C[C@@H]4C[C@H](O)CC[C@]4(C)[C@H]3C[C@H](O)[C@]12C [TCA, reference compound] | <1 ^ | 42% | −0.5 | 4 mM | 51 Dyne/cm | – | – | – | – | – | – | – | – | – | – | – | – | – | hs |
| C[C@H](CCC(=O)NCCS(=O)(=O)O)[C@H]1CC[C@H]2[C@@H]3[C@H](O)C[C@@H]4C[C@H](O)CC[C@]4(C)[C@H]3CC[C@]12C [TCDCA, reference compound] | <1 ^ | 70% | 0.9 | 3 mM | 47.1 Dyne/cm | – | – | – | – | – | – | – | – | – | – | – | – | – | hs |
| C[C@H](CCC(=O)O)[C@H]1CC[C@H]2[C@@H]3[C@@H](O)C[C@@H]4C[C@H](O)CC[C@]4(C)[C@H]3CC[C@]12C [UDCA, ursodeoxycholic acid, reference compound] | – | 94% | 2.2 | 10 mM | 50.5 Dyne/cm | 8.2 | 7 µM (≈ 2.75 µg/mL) | – | – | – | – | – | – | – | – | – | – | – | – |
